ChEMBL document CHEMBL1909046, “DrugMatrix in vitro pharmacology data”

Experiments:
B2 bradykinin receptor = biological target: T1, B2 bradykinin receptor (Homo sapiens, UniProt P30411); format: cell membranes, Membrane; settings: chem-1; further: in other assays of this panel Not Active means under 50% inhibition at 10 µM
T1 sequence (P30411 whole entry): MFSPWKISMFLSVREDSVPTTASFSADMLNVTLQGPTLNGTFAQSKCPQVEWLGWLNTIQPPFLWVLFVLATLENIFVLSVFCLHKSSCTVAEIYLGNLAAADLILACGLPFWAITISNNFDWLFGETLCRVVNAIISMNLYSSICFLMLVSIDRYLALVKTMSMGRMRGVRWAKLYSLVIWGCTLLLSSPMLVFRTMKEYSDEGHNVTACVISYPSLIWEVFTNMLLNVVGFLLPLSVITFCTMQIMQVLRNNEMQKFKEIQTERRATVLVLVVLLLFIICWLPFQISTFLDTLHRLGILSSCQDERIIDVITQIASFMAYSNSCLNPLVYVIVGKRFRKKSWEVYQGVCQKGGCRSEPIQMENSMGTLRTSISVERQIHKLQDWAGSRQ

[1] = biological target: T2, Muscarinic acetylcholine receptor M2 (Homo sapiens, UniProt P08172); format: cell membranes, CHO-K1, Membrane; settings: cho-k1; further: in other assays of this panel Not Active means under 50% inhibition at 10 µM
T2 sequence (P08172 whole entry): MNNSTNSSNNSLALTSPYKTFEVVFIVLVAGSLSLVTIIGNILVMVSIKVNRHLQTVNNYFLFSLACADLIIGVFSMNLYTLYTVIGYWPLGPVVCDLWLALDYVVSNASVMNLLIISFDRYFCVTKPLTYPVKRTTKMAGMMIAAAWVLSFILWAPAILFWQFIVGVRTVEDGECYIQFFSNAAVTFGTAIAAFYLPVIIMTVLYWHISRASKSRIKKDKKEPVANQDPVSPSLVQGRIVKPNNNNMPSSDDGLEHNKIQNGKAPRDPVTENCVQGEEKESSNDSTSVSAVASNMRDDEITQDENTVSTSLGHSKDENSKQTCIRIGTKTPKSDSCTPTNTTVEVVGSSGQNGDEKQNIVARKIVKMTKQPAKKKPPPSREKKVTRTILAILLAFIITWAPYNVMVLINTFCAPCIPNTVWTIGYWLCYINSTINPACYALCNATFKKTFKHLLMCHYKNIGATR

Cannabinoid receptor 1 = Cannabinoid receptor 1 (Homo sapiens, UniProt P21554); format: cell membranes, Chem-1, Membrane; settings: chem-1; further: in other assays of this panel Not Active means under 50% inhibition at 10 µM
Sequence of Cannabinoid receptor 1 (P21554 whole entry): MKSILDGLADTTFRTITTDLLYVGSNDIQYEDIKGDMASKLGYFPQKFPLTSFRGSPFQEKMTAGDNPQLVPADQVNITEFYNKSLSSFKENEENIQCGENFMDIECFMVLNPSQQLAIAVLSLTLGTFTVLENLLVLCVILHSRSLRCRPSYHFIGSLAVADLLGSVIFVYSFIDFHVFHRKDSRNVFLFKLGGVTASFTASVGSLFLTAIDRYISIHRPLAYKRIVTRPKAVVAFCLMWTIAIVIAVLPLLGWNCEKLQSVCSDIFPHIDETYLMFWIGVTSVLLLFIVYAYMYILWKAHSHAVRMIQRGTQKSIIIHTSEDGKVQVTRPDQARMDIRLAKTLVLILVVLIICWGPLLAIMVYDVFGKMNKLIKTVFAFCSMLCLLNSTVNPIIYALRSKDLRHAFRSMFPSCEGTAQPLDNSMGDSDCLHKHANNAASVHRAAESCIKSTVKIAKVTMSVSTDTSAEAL

Glucocorticoid receptor = biological target: T3, Glucocorticoid receptor (Homo sapiens, UniProt P04150); settings: hela s3; further: in other assays of this panel Not Active means under 50% inhibition at 10 µM
T3 sequence (P04150 whole entry): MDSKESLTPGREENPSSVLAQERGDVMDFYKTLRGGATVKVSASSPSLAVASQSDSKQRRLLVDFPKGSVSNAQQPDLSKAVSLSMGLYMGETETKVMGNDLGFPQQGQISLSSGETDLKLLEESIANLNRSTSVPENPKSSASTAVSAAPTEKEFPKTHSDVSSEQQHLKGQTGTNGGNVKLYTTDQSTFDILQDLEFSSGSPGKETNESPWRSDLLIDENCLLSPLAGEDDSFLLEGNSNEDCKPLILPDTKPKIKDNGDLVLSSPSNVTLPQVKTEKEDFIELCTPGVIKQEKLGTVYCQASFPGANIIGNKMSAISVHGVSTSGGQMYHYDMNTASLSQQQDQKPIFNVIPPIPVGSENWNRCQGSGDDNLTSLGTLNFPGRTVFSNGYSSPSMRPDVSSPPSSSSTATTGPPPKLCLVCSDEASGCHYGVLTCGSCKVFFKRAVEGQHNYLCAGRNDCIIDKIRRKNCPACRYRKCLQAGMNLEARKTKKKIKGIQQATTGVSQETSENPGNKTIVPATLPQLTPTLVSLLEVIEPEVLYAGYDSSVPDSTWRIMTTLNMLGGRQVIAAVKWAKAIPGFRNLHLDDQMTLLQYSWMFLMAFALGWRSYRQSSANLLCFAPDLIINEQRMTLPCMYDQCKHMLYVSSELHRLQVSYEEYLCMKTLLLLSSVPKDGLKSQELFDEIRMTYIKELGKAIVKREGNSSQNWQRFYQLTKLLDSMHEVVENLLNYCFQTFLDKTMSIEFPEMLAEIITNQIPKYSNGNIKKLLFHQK

[2] = DRUGMATRIX: Glutamate, Kainate radioligand binding (ligand: [3H] Kainic acid); format: cell membranes, Rattus norvegicus, Wistar, Brain, Membrane; settings: Not Active = under 50% inhibition at 10 µM
Cytochrome P450 1A2 = biological target: T4, Cytochrome P450 1A2 (Homo sapiens, UniProt P05177); settings: bti-tn-5b1-4; further: in other assays of this panel Not Active means under 50% inhibition at 10 µM
T4 sequence (P05177 whole entry): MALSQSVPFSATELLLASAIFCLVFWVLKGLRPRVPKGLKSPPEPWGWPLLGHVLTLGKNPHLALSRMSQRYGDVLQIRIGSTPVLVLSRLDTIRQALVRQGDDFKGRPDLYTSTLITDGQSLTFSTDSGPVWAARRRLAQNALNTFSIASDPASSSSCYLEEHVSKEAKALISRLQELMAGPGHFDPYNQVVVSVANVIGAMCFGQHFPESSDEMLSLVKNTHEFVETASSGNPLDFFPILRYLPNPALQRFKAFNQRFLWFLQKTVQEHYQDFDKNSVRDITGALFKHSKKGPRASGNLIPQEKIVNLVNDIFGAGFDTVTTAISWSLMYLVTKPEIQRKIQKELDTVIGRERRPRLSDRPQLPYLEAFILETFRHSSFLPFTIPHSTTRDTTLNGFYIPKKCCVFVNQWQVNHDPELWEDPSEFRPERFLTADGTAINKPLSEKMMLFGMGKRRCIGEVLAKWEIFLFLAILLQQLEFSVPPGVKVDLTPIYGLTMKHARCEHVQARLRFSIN

[3] = DRUGMATRIX: Atrial Natriuretic Factor (ANF) radioligand binding (ligand: [125I] ANF (rat)); format: cell membranes, Cavia porcellus, Dunkin-Hartley, Adrenal gland, Membrane; settings: Not Active = under 50% inhibition at 10 µM
[4] = DRUGMATRIX: Nicotinic Acetylcholine radioligand binding (ligand: [125I] Epibatidine); format: cell membranes, Membrane; settings: imr-32; Not Active = under 50% inhibition at 10 µM

CN(C/C=C/C#CC(C)(C)C)Cc1cccc2ccccc12 [TERBINAFINE]
Not Active: IC50 (B2 bradykinin receptor) | IC50 [1] | IC50 (Cannabinoid receptor 1) | IC50 (Glucocorticoid receptor) | IC50 [2] | Ki [2] | IC50 (Cytochrome P450 1A2) | Ki (Cytochrome P450 1A2) | IC50 [3] | Ki [3] | IC50 [4] | Ki [4]

CS(=O)(=O)c1ccc([C@@H](O)[C@@H](CO)NC(=O)C(Cl)Cl)cc1 [THIAMPHENICOL]
Not Active: IC50 (B2 bradykinin receptor) | IC50 [1] | IC50 (Cannabinoid receptor 1) | IC50 (Glucocorticoid receptor) | IC50 [2] | Ki [2] | IC50 (Cytochrome P450 1A2) | Ki (Cytochrome P450 1A2) | IC50 [3] | Ki [3] | IC50 [4] | Ki [4]

CCN(CC)CCNC(=O)c1cc(S(C)(=O)=O)ccc1OC [TIAPRIDE]
Not Active: IC50 (B2 bradykinin receptor) | IC50 [1] | IC50 (Cannabinoid receptor 1) | IC50 (Glucocorticoid receptor) | IC50 [2] | Ki [2] | IC50 (Cytochrome P450 1A2) | Ki (Cytochrome P450 1A2) | IC50 [3] | Ki [3] | IC50 [4] | Ki [4]

NC1CCN(c2nc3c(cc2F)c(=O)c(C(=O)O)cn3-c2ccc(F)cc2F)C1 (configuration not stated) [TOSUFLOXACIN]
Not Active: IC50 (B2 bradykinin receptor) | IC50 [1] | IC50 (Cannabinoid receptor 1) | IC50 (Glucocorticoid receptor) | IC50 [2] | Ki [2] | IC50 (Cytochrome P450 1A2) | Ki (Cytochrome P450 1A2) | IC50 [3] | Ki [3] | IC50 [4] | Ki [4]

CC(c1cc2ccccc2s1)N(O)C(N)=O (configuration not stated) [ZILEUTON]
Not Active: IC50 (B2 bradykinin receptor) | IC50 [1] | IC50 (Cannabinoid receptor 1) | IC50 (Glucocorticoid receptor) | IC50 [2] | Ki [2] | IC50 (Cytochrome P450 1A2) | Ki (Cytochrome P450 1A2) | IC50 [3] | Ki [3] | IC50 [4] | Ki [4]

MANGANESE CHLORIDE ANHYDROUS
Not Active: IC50 (B2 bradykinin receptor) | Ki (B2 bradykinin receptor) | IC50 [1] | Ki [1] | IC50 (Cannabinoid receptor 1) | Ki (Cannabinoid receptor 1) | IC50 (Glucocorticoid receptor) | Ki (Glucocorticoid receptor) | IC50 [2] | Ki [2] | IC50 (Cytochrome P450 1A2) | Ki (Cytochrome P450 1A2) | IC50 [3] | Ki [3] | IC50 [4] | Ki [4]

SODIUM ORTHOVANAD
Not Active: IC50 (B2 bradykinin receptor) | Ki (B2 bradykinin receptor) | IC50 [1] | Ki [1] | IC50 (Cannabinoid receptor 1) | Ki (Cannabinoid receptor 1) | IC50 (Glucocorticoid receptor) | Ki (Glucocorticoid receptor) | IC50 [2] | Ki [2] | IC50 (Cytochrome P450 1A2) | Ki (Cytochrome P450 1A2) | IC50 [3] | Ki [3] | IC50 [4] | Ki [4]
